# Measured values: US20250235418A1, “Butyrate Analogues and Methods of Use for HIF Stabilization and Treatment of Bowel Disease” (THE REGENTS OF THE UNIVERSITY OF COLORADO, A BODY CORPORATE, priority 2022, published 2025)
# Legend:
# [1] = system: HIF-1α / PHDs in murine colon; test: tributyrin oral gavage with or without MCPA in antibiotic SCFA-depleted mice; assay type: in vivo
# Procedure: We next confirmed that butyrate functions as a PHD inhibitor in vivo through antibiotic-mediated depletion of the gut microbiota and SCFAs in mice. […] We administered tributyrin (200 μL), a prodrug of butyrate composed of a glycerol backbone with three butyrate moieties, to SCFA-depleted mice via oral gavage every day for three days with glycerol as a control. Additionally, some mice given tributyrin were subjected with a rectal gavage of 60 mM MCPA to inhibit butyrate metabolism 4 h prior to sacrifice. […] 60 mM MCPA was chosen as a well-tolerated dose that inhibited β-oxidation in mice and rats. […] HIF-la protein was also diminished in epithelial scrapings (FIG. 8B) and whole colon tissue (FIG. 8C) with antibiotic treatment, which was also rescued with tributyrin supplementation with or without MCPA. […] The stabilization of HIF-1α in whole colon tissue also is in agreement with our findings in HMEC-1 and A549 cells that PHD inhibition by butyrate expands to beyond just IECs alone.
# [2] = oral gavage, 1 h after dosing, mice; cited from earlier work
# [3] = tributyrin with or without MCPA
smiles,measurement,setting,value
CCCC(=O)OCC(COC(=O)CCC)OC(=O)CCC [tributyrin],HIF-1α protein after antibiotic depletion,"[1]; epithelial scrapings and whole colon tissue, tributyrin with or without MCPA",rescued
same,colon tissue 2-OG levels after antibiotic depletion,[1]; [3],recovered
same,colon tissue butyrate levels after antibiotic depletion,[1]; [3],rescued
same,HIF-1α target gene Bnip3l mRNA after antibiotic depletion,"[1]; whole colon tissue and epithelial scrapings, tributyrin 200 μL oral gavage 3 d, with or without MCPA",normalized
same,plasma butyrate concentration,[2],> 1 mM
